Experiments:
human FPR1 = human FPR1 (Homo sapiens (Human), UniProt P21462); assay: FPR1 cyclic adenosine monophosphate (cAMP) assay; format: cell-based; settings: CHO cells overexpressing human FPR1; forskolin 10 µM; inhibition of cAMP production; read-out: hFPR1 cAMP EC50
Source text: (§1) N-formyl peptide receptors (FPRs) are a family of chemo attractant receptors that facilitate leukocyte response during inflammation. FPRs belong to the seven-transmembrane G protein-coupled receptor superfamily and are linked to inhibitory G-proteins (Gi). Three family members (FPR1, FPR2 and FPR3) have been identified in humans and are predominantly found in myeloid cells with varied distribution and have also been reported in multiple organs and tissues. After agonist binding, the FPRs activate a multitude of physiological pathways, such as intra cellular signaling transduction, Ca^2+ mobilization and transcription. The family interacts with a diverse set of ligands that includes proteins, polypeptides and fatty acid metabolites which activate both pro-inflammatory and pro-resolution downstream responses. FPR2 and FPR1 Cyclic Adenosine Monophosphate (cAMP) Assays were used to measure the activity of the compounds in this patent.
FPR2 and FPR1 Cyclic Adenosine Monophosphate (cAMP) Assays. A mixture of forskolin (5 µM final for FPR2 or 10 µM final for FPR1) and IBMX (200 µM final) were added to 384-well Proxiplates (Perkin-Elmer) pre-dotted with test compounds in DMSO (1% final) at final concentrations in the range of 0.020 nM to 100 µM. Chinese Hamster Ovary cells (CHO) overexpressing human FPR1 or human FPR2 receptors were cultured in F-12 (Ham’s) medium supplemented with 10% qualified FBS, 250 µg/ml zeocin and 300 µg/ml hygromycin (Life Technologies). Reactions were initiated by adding 2,000 human FPR2 cells per well or 4,000 human FPR1 cells per well in Dulbecco’s PBS (with calcium and magnesium) (Life Technologies) supplemented with 0.1% BSA (Perkin-Elmer). The reaction mixtures were incubated for 30 min at room temperature. The level of intracellular cAMP was determined using the HTRF HiRange cAMP assay reagent kit (Cisbio) according to manufacturer’s instruction. Solutions of cryptate conjugated anti-cAMP and d2 flurorophore-labelled cAMP were made in a supplied lysis buffer separately. Upon completion of the reaction, the cells were lysed with equal volume of the d2-cAMP solution and anti-cAMP solution. […] The potency and activity of a compound to inhibit cAMP production was then determined by fitting to a 4-parametric logistic equation from a plot of cAMP level versus compound concentrations.

human FPR2 = human FPR2 (Homo sapiens (Human), UniProt P25090); assay: FPR2 cyclic adenosine monophosphate (cAMP) assay; format: cell-based; settings: CHO cells overexpressing human FPR2; forskolin 5 µM; inhibition of cAMP production; read-out: hFPR2 cAMP2 EC50
human FPR2, sequence (P25090 whole entry): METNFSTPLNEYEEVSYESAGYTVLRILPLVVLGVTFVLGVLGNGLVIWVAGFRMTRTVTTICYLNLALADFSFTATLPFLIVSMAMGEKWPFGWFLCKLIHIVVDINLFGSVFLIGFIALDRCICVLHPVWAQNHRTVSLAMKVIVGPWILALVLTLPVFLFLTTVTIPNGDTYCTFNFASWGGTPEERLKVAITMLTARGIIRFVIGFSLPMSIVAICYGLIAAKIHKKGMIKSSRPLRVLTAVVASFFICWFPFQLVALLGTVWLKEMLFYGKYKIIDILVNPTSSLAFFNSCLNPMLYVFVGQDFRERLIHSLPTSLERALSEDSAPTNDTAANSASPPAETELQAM
Source text: as §1
FPR2 and FPR1 Cyclic Adenosine Monophosphate (cAMP) Assays. A mixture of forskolin (5 µM final for FPR2 or 10 µM final for FPR1) and IBMX (200 µM final) were added to 384-well Proxiplates (Perkin-Elmer) pre-dotted with test compounds in DMSO (1% final) at final concentrations in the range of 0.020 nM to 100 µM. Chinese Hamster Ovary cells (CHO) overexpressing human FPR1 or human FPR2 receptors were cultured in F-12 (Ham’s) medium supplemented with 10% qualified FBS, 250 µg/ml zeocin and 300 µg/ml hygromycin (Life Technologies). Reactions were initiated by adding 2,000 human FPR2 cells per well or 4,000 human FPR1 cells per well in Dulbecco’s PBS (with calcium and magnesium) (Life Technologies) supplemented with 0.1% BSA (Perkin-Elmer). The reaction mixtures were incubated for 30 min at room temperature. The level of intracellular cAMP was determined using the HTRF HiRange cAMP assay reagent kit (Cisbio) according to manufacturer’s instruction. Solutions of cryptate conjugated anti-cAMP and d2 flurorophore-labelled cAMP were made in a supplied lysis buffer separately. Upon completion of the reaction, the cells were lysed with equal volume of the d2-cAMP solution and anti-cAMP solution. After a 1-h room temperature incubation, time-resolved fluorescence intensity was measured using the Envision (Perkin-Elmer) at 400 nm excitation and dual emission at 590 nm and 665 nm. A calibration curve was constructed with an external cAMP standard at concentrations ranging from 1 µM to 0.1 pM by plotting the fluorescent intensity ratio from 665 nm emission to the intensity from the 590 nm emission against cAMP concentrations. The potency and activity of a compound to inhibit cAMP production was then determined by fitting to a 4-parametric logistic equation from a plot of cAMP level versus compound concentrations.

human FPR1, sequence (P21462 whole entry): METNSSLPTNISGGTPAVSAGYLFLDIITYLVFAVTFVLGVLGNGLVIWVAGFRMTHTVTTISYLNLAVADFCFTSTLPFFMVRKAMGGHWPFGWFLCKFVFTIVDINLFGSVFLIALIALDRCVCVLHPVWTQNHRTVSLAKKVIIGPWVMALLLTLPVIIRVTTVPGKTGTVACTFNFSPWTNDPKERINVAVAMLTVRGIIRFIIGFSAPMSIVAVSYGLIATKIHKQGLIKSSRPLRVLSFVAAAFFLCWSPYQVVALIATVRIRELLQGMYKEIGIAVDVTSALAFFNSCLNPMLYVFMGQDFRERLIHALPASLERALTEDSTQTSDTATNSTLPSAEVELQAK

SMILES | EC50 (human FPR1) | EC50 (human FPR2)
COCCOc1ncccc1N1C[C@@H](c2c(F)cc(OC)cc2F)[C@H](NC(=O)c2ccc(OC(F)(F)F)cc2)C1=O [Example 408] | 9 nM | 3.5 nM
COCCn1cccc(N2C[C@@H](c3c(F)cc(OC)cc3F)[C@H](NC(=O)c3ccc(OC(F)(F)F)cc3)C2=O)c1=O [Example 302] | 22 nM | 10 nM
COc1cc(F)c([C@@H]2CN(c3cncn(C4CCOCC4)c3=O)C(=O)[C@H]2NC(=O)c2ccc(Cl)cc2)c(F)c1 [Example 542] | 1200 nM | 5.7 nM
COc1cc(F)c([C@@H]2CN(c3nc(N4C[C@H]5C[C@@H]4CN5C)ccc3F)C(=O)[C@H]2NC(=O)c2ccc(OC(F)F)cc2)c(F)c1 [Example 50] | 1700 nM | 1.2 nM
COc1cc(F)c([C@H]2[C@H](NC(=O)c3ccc(Cl)cc3)C(=O)N(c3cncn(CC(F)F)c3=O)[C@@H]2C)c(F)c1 [Example 503] | 3500 nM | 4.3 nM
COc1ccc([C@@H]2CN(c3cccn(CC(C)OC)c3=O)C(=O)[C@H]2NC(=O)c2ccc(OC(F)F)cc2)c(F)c1 (some centres unmarked) [Example 418] | 4 nM | 2.7 nM
COc1cc(F)c([C@@H]2CN(c3cccnc3P(C)(C)=O)C(=O)[C@H]2NC(=O)c2ccc(OC(F)F)cc2)c(F)c1 [Example 30] | 750 nM | 10 nM
COc1cc(F)c([C@@H]2CN(c3c(C(F)(F)F)ccn(C)c3=O)C(=O)[C@H]2NC(=O)c2ccc(OC(F)F)cc2)c(F)c1 [Example 311] | 1900 nM | 10 nM
COc1cc(F)c([C@@H]2CN(c3ccnn(CC(O)C(F)(F)F)c3=O)C(=O)[C@H]2NC(=O)c2ccc(OC(F)F)cc2)c(F)c1 (some centres unmarked) [Example 475] | 20 nM | 2 nM
COc1ccc([C@@H]2CN(c3c(C)ccn(C4CCOC4)c3=O)C(=O)[C@H]2NC(=O)c2ccc(OC(F)(F)F)cc2)cc1 (some centres unmarked) [Example 704] | 1 nM | 2.4 nM
COc1cc(F)c([C@@H]2CN(c3nccc(NC4CC4)c3C(F)(F)F)C(=O)[C@H]2NC(=O)c2ccc(Cl)cc2)c(F)c1 [Example 163] | 1200 nM | 4.2 nM
CCn1ccc(C)c(N2C[C@@H](c3ccc(OC)cc3)[C@H](NC(=O)c3ccc(OC(F)(F)F)cc3)C2=O)c1=O [Example 170] | 0.9 nM | 4.4 nM
COc1cc(F)c([C@@H]2CN(c3nc(N4CC5(COC5)C4)ccc3OC)C(=O)[C@H]2NC(=O)c2ccc(OC(F)F)cc2)c(F)c1 [Example 223] | 100 nM | 6.1 nM
COc1cc(F)c([C@@H]2CN(c3nccn(C4CC4)c3=O)C(=O)[C@H]2NC(=O)c2ccc(Cl)cc2)c(F)c1 [Example 546] | 1800 nM | 2.1 nM
COc1cc(F)c([C@@H]2CN(c3cncn(C4CCN(C)C4)c3=O)C(=O)[C@H]2NC(=O)c2ccc(Cl)cc2)c(F)c1 (some centres unmarked) [Example 713] | > 5000 nM | 4 nM
COc1cc(F)c([C@@H]2CN(c3cccn(CC(O)CO)c3=O)C(=O)[C@H]2NC(=O)c2ccc(OC(F)F)cc2)c(F)c1 (some centres unmarked) [Example 681] | 1000 nM | 10 nM
COc1cc(F)c([C@@H]2CN(c3cccn4c(C)nnc34)C(=O)[C@H]2NC(=O)c2ccc(OC(F)F)cc2)c(F)c1 [Example 599] | 40 nM | 4.1 nM
COCCn1ncc(C)c(N2C[C@@H](c3c(F)cc(OC)cc3F)[C@H](NC(=O)c3ccc(OC(F)F)cc3)C2=O)c1=O [Example 472] | 1.7 nM | 1.2 nM
COc1ccc([C@@H]2CN(c3cccn(CC(OC)C(F)(F)F)c3=O)C(=O)[C@H]2NC(=O)c2ccc(OC(F)(F)F)cc2)cc1 (some centres unmarked) [Example 433] | 1 nM | 1.8 nM

SMILES | EC50 (human FPR1) | EC50 (human FPR2)
COCC(C(=O)N1CCOCC1)n1ccc(C)c(N2C[C@@H](c3c(F)cc(OC)cc3F)[C@H](NC(=O)c3ccc(OC(F)F)cc3)C2=O)c1=O (some centres unmarked) [Example 131] | 0.8 nM | 3.4 nM
COc1cc(F)c([C@@H]2CN(c3nc(N4CC(F)(F)C4)ccc3F)C(=O)[C@H]2NC(=O)c2ccc(OC(F)F)cc2)c(F)c1 [Example 117] | 210 nM | 3.1 nM
COc1ccc([C@@H]2CN(c3ccnn(CCC(F)(F)F)c3=O)C(=O)[C@H]2NC(=O)c2ccc(OC(F)F)cc2)cc1 [Example 645] | 190 nM | 2.8 nM
COc1cc(F)c([C@@H]2CN(c3cncnc3O)C(=O)[C@H]2NC(=O)c2ccc(OC(F)F)cc2)c(F)c1 [Example 346] | 1900 nM | 97 nM
COc1cc(N2CCN(C)CC2)nc(N2C[C@@H](c3c(F)cc(OC)cc3F)[C@H](NC(=O)c3ccc(Cl)cc3)C2=O)c1 [Example 233] | > 5000 nM | 6.3 nM
COc1cc(F)c([C@@H]2CN(c3c(C)ccn(CC4CCO4)c3=O)C(=O)[C@H]2NC(=O)c2ccc(OC(F)(F)F)cc2)c(F)c1 (some centres unmarked) [Example 615] | 5.3 nM | 8.7 nM
COc1cc(F)c([C@@H]2CN(c3cccc(C(F)F)n3)C(=O)[C@H]2NC(=O)c2ccc(OC(F)(F)F)cc2)c(F)c1 [Example 24] | 300 nM | 45 nM
COc1cc(F)c([C@@H]2CN(c3nc(C(F)(F)F)ccc3C)C(=O)[C@H]2NC(=O)c2ccc(OC(F)F)cc2)c(F)c1 [Example 204] | 520 nM | 5.3 nM
COc1ccnc(N2C(=O)[C@@H](NC(=O)c3ccc(Cl)cc3)[C@H](c3c(F)cc(OC)cc3F)[C@@H]2C)c1 [Example 432] | 3800 nM | 9.1 nM
COc1cc(F)c([C@@H]2CN(c3cccc(=O)n3C)C(=O)[C@H]2NC(=O)c2ccc(OC(F)F)cc2)c(F)c1 [Example 10] | 290 nM | 50 nM
COc1cc(F)c([C@@H]2CN(c3c(C)ccn(CC(F)F)c3=O)C(=O)[C@H]2NC(=O)c2ccc(Cl)cc2)c(F)c1 [Example 653] | 12 nM | 3.3 nM
CCn1ccc(C)c(N2C[C@@H](c3ccc(OC)cc3F)[C@H](NC(=O)c3ccc(OC(F)(F)F)cc3)C2=O)c1=O [Example 183] | 0.6 nM | 4.8 nM
COc1cc(F)c([C@@H]2CN(c3cccn(C4COC4)c3=O)C(=O)[C@H]2NC(=O)c2ccc(OC(F)F)cc2)c(F)c1 [Example 304] | 90 nM | 9.6 nM
COc1cc(F)c([C@@H]2CN(c3cccn(CC(OC)C(F)(F)F)c3=O)C(=O)[C@H]2NC(=O)c2ccc(OC(F)(F)F)cc2)c(F)c1 (some centres unmarked) [Example 156] | 1.3 nM | 4 nM
COc1ccc([C@@H]2CN(c3ccnn(CCC(F)(F)F)c3=O)C(=O)[C@H]2NC(=O)c2ccc(Cl)cc2)cc1 [Example 671] | – | 5.8 nM
COCC(CO)n1ccc(C)c(N2C[C@@H](c3c(F)cc(OC)cc3F)[C@H](NC(=O)c3ccc(OC(F)(F)F)cc3)C2=O)c1=O (some centres unmarked) [Example 429] | – | 1.5 nM
COc1cc(F)c([C@@H]2CN(c3c(C)ccn(CC(O)C4CC4)c3=O)C(=O)[C@H]2NC(=O)c2ccc(OC(F)(F)F)cc2)c(F)c1 (some centres unmarked) [Example 683] | – | 13 nM
COc1cc(F)c([C@@H]2CN(c3c(C)ccn(CC(C)O)c3=O)C(=O)[C@H]2NC(=O)c2ccc(OC(F)(F)F)cc2)c(F)c1 (some centres unmarked) [Example 400] | – | 2.9 nM
COc1cc(F)c([C@@H]2CN(c3c(C)ccn(CC(O)C4CC4)c3=O)C(=O)[C@H]2NC(=O)c2ccc(OC(F)(F)F)cc2)c(F)c1 (some centres unmarked) [Example 686] | 0.7 nM | –

Source: patent publication US20230348426A1, “OXOPYRROLIDINE FPR2 AGONISTS” (Bristol-Myers Squibb Company, priority 2020, published 2023)
